From patent US9056111B1, “Selective efflux inhibitors and related pharmaceutical compositions and methods of treatment” (STC.UNM, priority 2011, dated 2015)

What was measured:
ABCB1 = ABCB1 (Homo sapiens, UniProt P08183); test: JC-1 efflux inhibition dose response, flow cytometry, Jurkat-DNR cells; conditions: for IC50: IC50 ABCB1 (efflux inhibition of JC-1 substrate), Jurkat-DNR cells over-expressing ABCB1, averages of two to four replicates
Description: (§1) The HyperCyt® high throughput flow cytometry platform (IntelliCyt™, Albuquerque, N. Mex.) was used to sequentially sample cells from 384-well microplates (2 μL/sample) for flow cytometer presentation at a rate of 40 samples per minute.^62-63 Flow cytometric analysis was performed on a CyAn™ flow cytometer (Beckman-Coulter, Fullerton, Calif.). The resulting time-gated data files were analyzed with HyperView® software to determine compound activity in each well. Inhibition response curves were fitted by Prism® software (GraphPad Software, Inc., San Diego, Calif.) using nonlinear least-squares regression in a sigmoidal dose response model with variable slope, also known as the four-parameter logistic equation. This type of time-gated flow cytometric data analysis was described in detail for a previous ABC transporter screen from our group.^56
The assay provider's ABCB1 over-expressing Jurkat-DNR cell line is used for confirmatory follow up instead of the CCRF-Adr cells. Each cell line (Jurkat-DNR and Ig-MXP3) is run separately against all compounds (no differential cell staining) in dose response. The assay is conducted in 384-well format in a total volume of 15.1 μL. Cells and reagents are added sequentially as follows: 1) PBS buffer (5 μL/well); 2) test compound (100 nL/well); 3) drug-resistant cells (10 μL/well) pre-stained with the JC-1 substrate at 1 μM. Final in-well concentrations of test compound range from 50 μM to 69 nM over an 18 point dose response and the cell concentration is 1×10^6 cells/mL. Nicardipine (50 μM) is added to each plate as a pan-inhibition positive control. The plate is rotated end-over-end at 4 RPM and 25° C. for 30 minutes and then cell samples are analyzed and flow cytometric data of light scatter and fluorescence emission at 530+/−20 nm (488 nm excitation, FL1) are collected.
Each cell line (Jurkat-DNR and Ig-MXP3) was run separately against all compounds (no differential cell staining) in dose-response. The protocol differed from the single point screen as describe here. Cells and reagents were added sequentially as follows: 1) PBS buffer (5 μL per well); 2) test compound (100 nL per well); 3) drug-resistant cells (10 μL, per well) pre-exposed to the JC-1 substrate at 1 μM just prior to the well addition. Final in-well concentrations of test compound ranged from 50 μM to 69 nM over an 18 point dose-response and the cell concentration was 1×10^6 cells mL^−1.

ABCB1 / ABCG2 = target: T1, ABCB1 / ABCG2 (Homo sapiens, UniProt Q9UNQ0); test: JC-1 efflux inhibition dose response, flow cytometry, Ig-MXP3 cells; conditions: human, probe JC-1 (1 µM), ~Fold G2 Selective (B1/G2), quotient of average ABCB1 IC50 and average ABCG2 IC50, efflux assay
T1 sequence (Q9UNQ0 1-655): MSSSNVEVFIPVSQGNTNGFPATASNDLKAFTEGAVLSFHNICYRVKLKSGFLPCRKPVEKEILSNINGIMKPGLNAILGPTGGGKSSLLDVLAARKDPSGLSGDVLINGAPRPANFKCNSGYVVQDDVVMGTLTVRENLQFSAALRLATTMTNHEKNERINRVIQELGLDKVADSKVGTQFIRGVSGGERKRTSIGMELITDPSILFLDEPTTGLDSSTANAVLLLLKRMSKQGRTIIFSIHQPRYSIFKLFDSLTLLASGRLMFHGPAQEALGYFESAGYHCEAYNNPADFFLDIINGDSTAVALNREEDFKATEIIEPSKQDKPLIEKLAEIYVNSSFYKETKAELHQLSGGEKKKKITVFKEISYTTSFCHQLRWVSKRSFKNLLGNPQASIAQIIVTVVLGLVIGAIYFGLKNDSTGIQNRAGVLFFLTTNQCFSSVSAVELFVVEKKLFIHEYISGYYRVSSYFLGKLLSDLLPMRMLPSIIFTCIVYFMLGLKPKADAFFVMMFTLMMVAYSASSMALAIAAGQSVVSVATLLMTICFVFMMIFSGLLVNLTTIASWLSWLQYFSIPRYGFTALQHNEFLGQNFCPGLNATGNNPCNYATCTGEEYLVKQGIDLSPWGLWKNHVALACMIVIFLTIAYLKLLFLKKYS
Description: as §1
(§2) The assay provider's ABCB1 over-expressing Jurkat-DNR cell line is used for confirmatory follow up instead of the CCRF-Adr cells. Each cell line (Jurkat-DNR and Ig-MXP3) is run separately against all compounds (no differential cell staining) in dose response. The assay is conducted in 384-well format in a total volume of 15.1 μL. Cells and reagents are added sequentially as follows: 1) PBS buffer (5 μL/well); 2) test compound (100 nL/well); 3) drug-resistant cells (10 μL/well) pre-stained with the JC-1 substrate at 1 μM. […] Nicardipine (50 μM) is added to each plate as a pan-inhibition positive control.
(§3) Each cell line (Jurkat-DNR and Ig-MXP3) was run separately against all compounds (no differential cell staining) in dose-response. The protocol differed from the single point screen as describe here. Cells and reagents were added sequentially as follows: 1) PBS buffer (5 μL per well); 2) test compound (100 nL per well); 3) drug-resistant cells (10 μL, per well) pre-exposed to the JC-1 substrate at 1 μM just prior to the well addition.

ABCG2 = target: T2, ABCG2 (Homo sapiens, UniProt Q9UNQ0); test: as above
T2 sequence (Q9UNQ0 1-655): T1 sequence (Q9UNQ0 1-655)
Description: as §1, §2, §3

Sequence of ABCB1 (P08183 whole entry): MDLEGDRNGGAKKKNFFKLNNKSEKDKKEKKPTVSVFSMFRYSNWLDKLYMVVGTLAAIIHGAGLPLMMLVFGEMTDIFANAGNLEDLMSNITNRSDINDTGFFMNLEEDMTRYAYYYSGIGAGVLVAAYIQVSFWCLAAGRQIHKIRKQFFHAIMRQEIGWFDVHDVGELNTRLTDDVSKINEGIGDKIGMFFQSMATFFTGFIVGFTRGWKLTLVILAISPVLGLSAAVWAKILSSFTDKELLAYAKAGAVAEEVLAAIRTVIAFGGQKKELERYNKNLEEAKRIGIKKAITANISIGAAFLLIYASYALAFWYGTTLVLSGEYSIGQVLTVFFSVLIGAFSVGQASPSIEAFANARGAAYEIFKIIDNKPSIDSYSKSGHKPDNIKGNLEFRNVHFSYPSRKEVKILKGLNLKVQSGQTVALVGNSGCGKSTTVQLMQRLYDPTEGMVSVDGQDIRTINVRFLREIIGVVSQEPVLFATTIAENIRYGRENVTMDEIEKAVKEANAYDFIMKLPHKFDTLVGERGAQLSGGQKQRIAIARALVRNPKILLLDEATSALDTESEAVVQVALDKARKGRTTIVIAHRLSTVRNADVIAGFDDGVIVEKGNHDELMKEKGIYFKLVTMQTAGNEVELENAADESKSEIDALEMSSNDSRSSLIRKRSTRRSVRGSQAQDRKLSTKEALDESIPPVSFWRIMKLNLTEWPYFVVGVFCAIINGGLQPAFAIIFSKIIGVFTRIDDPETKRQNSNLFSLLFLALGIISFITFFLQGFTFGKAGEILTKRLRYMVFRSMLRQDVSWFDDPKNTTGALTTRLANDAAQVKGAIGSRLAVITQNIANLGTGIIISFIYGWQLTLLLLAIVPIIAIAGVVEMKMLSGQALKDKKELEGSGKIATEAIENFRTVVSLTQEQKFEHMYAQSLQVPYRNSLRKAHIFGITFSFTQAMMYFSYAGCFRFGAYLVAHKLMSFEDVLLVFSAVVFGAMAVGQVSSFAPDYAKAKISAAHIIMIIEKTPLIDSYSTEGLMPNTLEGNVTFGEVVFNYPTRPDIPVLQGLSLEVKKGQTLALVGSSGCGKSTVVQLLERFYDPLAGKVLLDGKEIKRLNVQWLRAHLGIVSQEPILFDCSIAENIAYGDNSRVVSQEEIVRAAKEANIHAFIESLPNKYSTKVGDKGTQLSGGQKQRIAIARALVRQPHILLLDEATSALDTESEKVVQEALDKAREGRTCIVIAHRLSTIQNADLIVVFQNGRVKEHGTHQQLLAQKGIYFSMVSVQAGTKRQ

SMILES | IC50 (ABCB1) [µM] | selectivity ratio at 30 min (ABCB1 / ABCG2) | IC50 (ABCG2) [µM] | efflux inhibition activity ABCB1 (ABCB1; JC-1 efflux, Jurkat-DNR) | ~Fold G2 Selective (B1/G2) (ABCG2; quotient of average ABCB1 IC50 and average ABCG2 IC50, efflux assay) [fold]
O=C(c1ccoc1)N1CCN(c2cc(-c3ccccc3)nc3cc(-c4ccc(Br)cc4)nn23)CC1 [Compound 33] | 1.31 ± 0.35 | 1.7 | 0.76 ± 0.43 | – | –
COc1cccc(-c2cc3nc(-c4ccccc4)cc(N4CCN(C(=O)c5ccoc5)CC4)n3n2)c1 [Compound 35] | 2.26 ± 0.83 | 2 | 1.14 ± 0.59 | – | –
COc1cccc(-c2cc3nc(-c4ccccc4)cc(N4CCN(C(=O)c5ccco5)CC4)n3n2)c1 [Compound 38] | 4.77 ± 0.63 | 3.4 | 1.4 ± 0.32 | – | –
O=C(c1ccco1)N1CCN(c2cc(-c3ccccc3)nc3cc(-c4ccc(Cl)cc4)nn23)CC1 [Compound 39] | 3.64 ± 1.47 | 2.7 | 1.37 ± 0.53 | – | –
Cc1cccc(-c2cc3nc(-c4ccccc4)cc(N4CCN(C(=O)c5ccco5)CC4)n3n2)c1 [Compound 40] | 3.88 ± 1.67 | 1.6 | 2.46 ± 1.09 | – | –
O=C(c1ccccc1)N1CCN(c2cc(-c3ccccc3)nc3cc(-c4cccc(F)c4)nn23)CC1 [Compound 42] | 4.34 ± 2.09 | 1.9 | 2.27 ± 0.06 | – | –
O=C(c1ccccc1)N1CCN(c2cc(-c3ccccc3)nc3cc(-c4ccc(F)cc4)nn23)CC1 [Compound 43] | 3.99 ± 2.31 | 2 | 2.03 ± 0.11 | – | –
COc1ccc(-c2cc(N3CCN(C(=O)c4ccoc4)CC3)n3nc(-c4ccccc4)cc3n2)cc1 [Compound 45] | 4.55 | 1.9 | 2.37 ± 1.8 | – | –
O=C(c1ccoc1)N1CCN(c2cc(-c3ccccc3F)nc3cc(-c4ccccc4)nn23)CC1 [Compound 46] | 5.61 | 10 | 0.56 | – | –
O=C(c1ccoc1)N1CCN(c2cc(-c3cccc(F)c3)nc3cc(-c4ccccc4)nn23)CC1 [Compound 47] | 7.07 | 4.2 | 1.68 ± 0.61 | – | –
O=C(c1ccoc1)N1CCN(c2cc(-c3ccc(F)cc3)nc3cc(-c4ccccc4)nn23)CC1 [Compound 48] | 11.8 | 1.8 | 6.45 | – | –
CC(C)(C)c1cc(N2CCN(C(=O)c3ccoc3)CC2)n2nc(-c3ccccc3)cc2n1 [Compound 49] | 5.62 | 0.5 | 11.5 | – | –
CC(C)(C)c1cc2nc(-c3ccco3)cc(N3CCN(C(=O)c4ccoc4)CC3)n2n1 [Compound 50] | 3.31 | 1.7 | 1.97 | – | –
O=C(c1ccoc1)N1CCN(c2cc(-c3ccco3)nc3cc(-c4cccs4)nn23)CC1 [Compound 51] | 8.42 | 5.4 | 1.56 ± 1.3 | – | –
O=C(c1ccoc1)N1CCN(c2cc(-c3ccco3)nc3cc(-c4ccc(Cl)cc4)nn23)CC1 [Compound 54] | 41.5 | 22 | 1.89 ± 1.18 | – | –
COc1ccccc1-c1cc2nc(-c3ccco3)cc(N3CCN(C(=O)c4ccoc4)CC3)n2n1 [Compound 55] | 5.57 | 2 | 2.76 ± 2.14 | – | –
Cc1cccc(-c2cc3nc(-c4ccco4)cc(N4CCN(C(=O)c5ccoc5)CC4)n3n2)c1 [Compound 58] | 3.45 | 5.9 | 0.58 | – | –
Cc1ccc(-c2cc3nc(-c4ccco4)cc(N4CCN(C(=O)c5ccoc5)CC4)n3n2)cc1 [Compound 59] | 11.3 | 2.2 | 5.19 ± 4.22 | – | –
O=C(c1ccoc1)N1CCN(c2cc(-c3ccco3)nc3cc(-c4cccc(-c5ccco5)c4)nn23)CC1 [Compound 60] | 3.98 ± 1.3 | 4.3 | 0.93 ± 0.27 | – | –
O=C(c1ccoc1)N1CCN(c2cc(-c3ccccc3)nc3cc(-c4ccccc4)nn23)CC1 [Compound 62] | 4.79 ± 4.23 | 3 | 1.58 ± 0.63 | – | –
Cc1cc(N2CCN(C(=O)c3ccoc3)CC2)n2nc(-c3ccccc3)cc2n1 [Compound 63] | 15.8 ± 3.33 | 2.2 | 7.27 ± 3.01 | – | –
O=C(c1ccoc1)N1CCN(c2cc(-c3cccs3)nc3cc(-c4ccccc4)nn23)CC1 [Compound 64] | 3.46 | 2.1 | 1.64 ± 0.03 | – | –
Cc1ccc(-c2cc(N3CCN(C(=O)c4ccoc4)CC3)n3nc(-c4ccccc4)cc3n2)o1 [Compound 66] | 0.68 | 0.8 | 0.84 ± 0.87 | – | –
O=C(c1ccco1)N1CCN(c2cc(-c3ccco3)nc3cc(-c4ccccc4)nn23)CC1 [Compound 67] | 6.57 ± 2.13 | 2.4 | 2.77 ± 4.01 | – | –
O=C(c1ccccc1)N1CCN(c2cc(-c3ccco3)nc3cc(-c4ccccc4)nn23)CC1 [Compound 69] | 5.56 ± 1.25 | 3.4 | 1.62 ± 1.27 | – | –
c1ccc(CN2CCN(c3cc(-c4ccco4)nc4cc(-c5ccccc5)nn34)CC2)cc1 [Compound 75] | 8.99 ± 3.67 | 2.9 | 3.07 ± 1.88 | – | –
O=C(OCc1ccccc1)N1CCN(c2cc(-c3ccco3)nc3cc(-c4ccccc4)nn23)CC1 [Compound 76] | > 50 | ~19 | 2.71 ± 1.95 | completely lost | 18.5
